1 compound from patent US12291494B2, “Methods of treating fibrosis” (Nogra Pharma Limited, priority 2012, dated 2025) can be followed below.

One experiment has as its system α-SMA. The experiment can be described thus: Liver gene expression by quantitative Real Time PCR: α-SMA. To be noted: liver mRNA, normalized to β-actin; CCl4 group 65.51 ± 22.24. In kind it is in vivo, mice. The protocol:
(§1) The effect of administration of compound 34 (GED) and the specific CB2 agonist (JWH-133) was evaluated on the level of gene expression of cytokines (IL-1β, TNF-α) and genes involved in the mechanism of fibrosis by quantitative Real Time PCR.
(§2) Total RNA was isolated from livers using Rneasy kit (Macherey Nagel, Hoerdt, France) according to the manufacturer's instructions. RNA quantification was performed using spectrophotometry. After treatment at 37° C. for 30 min with 20-50 units of RNase-free DNase I (Roche Diagnostics Corporation, Indianapolis, IN, USA), oligo-dT primers (Roche Diagnostics Corporation, Indianapolis, USA) were used to synthesize single-stranded cDNA. mRNAs were quantified using SYBR green Master Mix (Applera, Courtaboeuf, France) with murine specific oligonucleotides (see Table 2) in a GeneAmp Abiprism 7000 (Applera, Courtaboeuf, France). In each assay, calibrated and no-template controls were included. Each sample was run in triplicate. SYBR green dye intensity was analyzed using the Abiprism 7000 SDS software (Applera, Courtaboeuf, France). All results were normalized to the unaffected housekeeping gene β-actin.

In another experiment the test system is Male C57bl6 mice. The experiment can be described thus: CCl4-induced liver fibrosis: histology (Metavir score). It counts as in vivo. As to the method:
Liver fibrosis was induced in Male C57bl6 mice (Charles River, l'Arbresle, France) by injection of carbon tetrachloride (CCl4). The C57bl6 mice weighed 22-25 g and were maintained in laboratory conditions for 1 week before experiment. Animals were housed 5 per cage with food and water available ad libitum.
The effectiveness of compound 34 (specific ligand of PPARg) as compared to JWH-133 (anti-fibrogenic agent) was evaluated. Compound 34 was administered orally in combination with CCl4 injections for ca. 5 weeks. Compound 34 was dosed daily at 200 uL of a 30 mM solution. JWH-133 was administered daily via intraperitoneal injections at 3 mg/kg (dose volume=100 uL). The model of liver fibrosis is induced by chronic exposure to increased dosages of CCl4 for 5 weeks. The first week, mice received an intraperitoneal injection of CCl4, resuspended in olive oil, at the dosage of 80 μl/kg of mice body weight twice a week. At week 2, 3 injections of CCl4 at the dosage of 160 μl/kg were performed every two days. At week 3, 3 injections of CCl4 at the dosage of 240 μl/kg were performed every two days. At week 4, 3 injections of CCl4 at the dosage of 320 μl/kg were performed every two days. Mice were euthanized, at week 5, 3 days after the last CCl4 administration.
The formalin-fixed liver tissue was processed and 5 μm thick paraffin sections were stained with hematoxylin and eosin (H&E) and Picrosirius red staining (specific coloration for collagen in tissue sections) to evaluate the degree of fibrosis in the liver. Each section was analyzed blindly by 3 different experimenters for the quantification of the degree of fibrosis for each lobe of the liver (5) using the Metavir score (see FIG. 2A for Metavir Score chart). The photographs seen in FIG. 2B were obtained with a 20× objective.

For another experiment, the system named is Collagen-1. The experiment in a line: Liver gene expression by quantitative Real Time PCR: collagen-1. It counts as in vivo, mice. The protocol: as §1, §2
A general note: Real-time PCR tracks product formation cycle by cycle.

With `CCCC(C)(C)c1ccc2c(c1)OC(C)(C)[C@@H]1CC=C(C)C[C@@H]21` [JWH-133], the α-SMA in the experiment on α-SMA was 30.07 ± 4.7. Moreover, the “decrease of the fibrotic score (adapted Metavir score) compared to untreated animals” value with Male C57bl6 mice (FIG. 3B) is 14.2%. Also, the “mean Metavir score (FIG. 3A)” value in the experiment on Male C57bl6 mice (compound 34 30 mM 200 uL oral daily, JWH-133 3 mg/kg i.p. daily, CCl4 vehicle group 2.5±0.5) is given as 2±0. Moreover, in the experiment with Male C57bl6 mice (result in words), the “degree of fibrosis (Metavir)” value is recorded as “decrease in the degree of fibrosis from severe to moderate fibrosis”. In the experiment on Male C57bl6 mice (summary statement), the “decrease of hepatic fibrotic lesions” value turned out to be 14%. The “liver concentration of collagen-1 mRNA” value with Collagen-1 (CCl4 mice, result in words) is recorded as “normalizes”. The compound further showed a Collagen-1 in the experiment with Collagen-1 (liver mRNA, normalized to β-actin, CCl4 group 138.12 ± 34.68) of 87.59 ± 16.97.
